{
  "source": "patent US20070225255A1",
  "about": "“Use of Mitochondrially Targeted Antioxidant in the Treatment of Liver Diseases and Epithelial Cancers” (priority 2004, published 2007)",
  "key": {"[1]": {"system": "fatty acid binding protein (FABP)", "experiment": "Western blot of fatty acid binding protein in DDC intoxicated mice", "type": "in vivo, mouse", "details": "MitoQ treatment of DDC intoxicated animals", "description": "The protein expression level(s) of fatty acid binding protein (FABP) representing a sensitive marker for hepatocyte damage (Monbaliu D . et al., 2005, Transplant Proc. 37(1):413-416) is determined."}, "DDC intoxicated mice [2]": {"system": "DDC intoxicated mice", "experiment": "Tocopherol quinone content in isolated mouse liver mitochondria", "type": "in vivo", "details": "DDC intoxicated mice with or without MitoQ", "description": "In order to evaluate oxidative stress in control versus DDC-intoxicated mice with or without treatment by using antioxidants according to the invention, tocopherol quinone (TQ) content (Gille L. et al., 2004, Biochemic. Pharmacology, 68: 373-381) in isolated liver mitochondria (all tested animal groups prepared according to protocols in Example 3) is performed. The mouse liver mitochondria are prepared according to modified protocol from Staniek K. and Nohl H., 1999, Biochem. et Biophys. Acta, 1413: 70-80; Mela L. and Sietz S., 1979, Methods in Enzymology, Academic Press Inc.: 39-46, and TQ content is normalized to several parameters including protein and cytochrome concentrations and activity tests of complex I (NADH dehydrogenase), complex II (succinate dehydrogenase), complex III (cytochrome bcl) and complex IV (cytochrome oxidase).\nA method for rat heart mitochondria (Staniek K. and Nohl H., 1999, Biochem. et Biophys. Acta, 1413: 70-80; Mela L. and Sietz S., 1979, Methods in Enzymology, Academic Press Inc.: 39-46) is adapted for mouse liver (ca. 10% weight compared to rat liver) isolated from various animal groups according to Example 3. The isolation of liver is performed at 4° C. […] The protein concentration is measured with the Biuret method (BSA as standard, at least […] protein needed for double determination) with expected yield of 3 to 6 mg. […]"}, "[3]": {"system": "human cell lines intoxicated with DDC or BSO", "experiment": "ROS formation in cell lines intoxicated with DDC or BSO", "type": "cell-based", "details": "simultaneous treatment at concentrations corresponding to EC50", "quoted_text": "Another simple set of experiments employing hepatoma cell lines (e.g. HepG2 or Hep3B), the SNU-398 hepatocellular carcinoma-derived cell line (ATCC No. CRL-2233, LGC Promochem, Germany), the HUH-7 human carcinoma-derived cell line (Japanese collection of Research Biosources JCRB 0403) or the Tib-73 mouse embryonic liver cell line (ATCC TIB 73=BNL CL2 derived from BAL/c mouse, MD, USA) allows measurement of ROS production in these cells upon DDC intoxication.\nTo determine ROS production in for example hepatoma cell lines a standard experimental protocol according to Example 8 is applied. Tested hepatoma cells are grown in 96-well plates in culture medium (DMEM supplemented with 10% FCS, Gibco) to 80% confluency, subsequently washed with HBSS and incubated in the dark with DHE (10-50 μM) for 10 minutes at 37° C. Cells are then washed twice with Hank's balanced salt solution (HBSS, Gibco) to remove excess dye. Fluorescence is monitored in a fluorescence microscope (Olympus, Hamburg, Germany).\nAlternatively, the generation of ROS is measured by using the fluoroprobe 5-(and-6)-chloromethyl-2′,7′-dichlorodihydrofluorescein diacetate acetyl ester (CM-H2DCFDA, Molecular Probes, Goettingen, Germany) which is converted to fluorescent dichlorofluorescien (DCF; Djordjevic T. et al., 2004, Antioxidants & Redox Signaling, 6: 713-720). To determine DCF fluorescence in a microplate reader (Tecan, Crailsheim, Germany), cells (e.g. HepG2, Hep3B or SNU-398) are grown in 96-well plates to 80% confluency. […] After several washes with HBSS to remove excess dye, fluorescence is monitored by using 480 nm excitation and 540 nm emission wavelength. DCF fluorescence is standardized to the number of viable cells using the Alamar Blue test according to the manufacturer's instructions (Biosource, Nivelles, Belgium). […] The absorbance is then measured at the wavelength of 580 μm."}, "[4]": {"system": "DDC- or GF intoxicated mice", "experiment": "Toxic memory effect upon reintoxication with DDC or GF after recovery", "type": "in vivo, mouse", "details": "10 weeks DDC or GF, 4 weeks recovery, reexposure 24 to 72 hours with simultaneous treatment", "source_text": "Mouse livers respond to DDC- or GF intoxication first with ballooning of hepatocytes and formation of a denser keratin IF network. After around 6 weeks of intoxication, ballooned hepatocytes show a reduced density of the keratin IF and early MBs can be observed as fine granules associated with the keratin IF network. Continuation of intoxication leads to the appearance of large MBs typically located in the perinuclear cytoplasmic region. […] Upon cessation of intoxication, MBs disappear within several weeks. At 4 weeks of recovery from intoxication, there are groups of hepatocytes devoid of cytoplasmic keratin filaments but still containing small remnants of MBs at the cell periphery in association with desmosomes. If such mice are reexposed to DDC or GF numerous MBs reappear within 24 to 72 hours (Stumptner C. et al., 2001, J. Hepatol., 34: 665-675). This enhanced formation of MBs upon reintoxication was interpreted—in analogy to allergic reactions—as a toxic memory effect.\nIn another set of experiments, 10 week-intoxication of mice with DDC or GF is followed by 4 weeks of recovery."}, "[5]": {"details": "according to Jauslin M. L. et al., 2003, FASEB J.; cited from earlier work"}, "[6]": {"system": "mitochondria within isolated cells", "details": "in vitro; cited from earlier work"}, "[7]": {"details": "fed in drinking water for 3 to 7 days, 500 μM or 1 mM (MitoVit E 500 μM); cited from earlier work"}, "DDC intoxicated mice [8]": {"system": "DDC intoxicated mice", "experiment": "Short term (3 days) DDC intoxication, liver histology (H&E)", "details": "DDC 3 days", "procedure": "Liver samples prepared according to Example 1 are used for simple histologic staining such as with haematoxylin and eosin (Luna L. G., 1968, Manual of Histologic staining methods of the Armed Forces Institute of Pathology, 3rd edition. McGraw Hill, New York). Furthermore, single-label immunohistochemistry or double-label immunoflourescence microscopy is performed to detect MBs in tested animals.\nIn another set of experiments 3 to 12 mg/kg of MitoQ dissolved in 1% of DMSO in PBS is given intraperitoneally simultaneously to DDC intoxicated mice for 3 days and compared to control animals (positive control group represents DDC intoxicated mice whereas negative control represents non DDC intoxicated but vehicle injected animals)."}, "DDC intoxicated mice [9]": {"system": "DDC intoxicated mice", "experiment": "Long term (10 weeks) DDC intoxication, liver histology (cell ballooning, Mallory bodies)", "details": "then 1 week without DDC with two injections of MitoQ", "procedure": "Furthermore, single-label immunohistochemistry or double-label immunoflourescence microscopy is performed to detect MBs in tested animals.\nIn long term experiments by using mice intoxicated with DDC (for 8-10 weeks) the presence (or absence) of cell ballooning and/or Mallory bodies (MBs) in liver samples of treated animals is determined and compared to the control groups of animals.\nIn another set of experiments, after 10 weeks of DDC intoxication tested animals receive i.p. injections of MitoQ (1.25 mg/kg) twice within subsequent 7 days (day 1 and day 4 of the corresponding week), and are analysed by routine histology (standard haematoxylin/eosin staining according to Luna L. G., 1968, Manual of Histologic staining methods of the Armed Forces Institute of Pathology, 3rd edition. McGraw Hill, New York)."}},
  "data": [
    {"substance": "MitoQ", "values": [
      {"measurement": "FABP protein expression", "setting": "[1]", "result": "reaches almost control mice FABP protein expression values"},
      {"measurement": "tocopherol quinone (TQ) levels in liver mitochondria", "setting": "DDC intoxicated mice [2]", "result": "elevated TQ levels in DDC intoxicated mice when compared to controls and mice treated with MitoQ"},
      {"measurement": "ROS formation", "setting": "[3]", "result": "significant reduction in ROS formation"},
      {"measurement": "toxic memory effect (reappearance of MBs)", "setting": "[4]", "result": "reduced or abolished"},
      {"measurement": "EC50", "setting": "[5]", "result": 0.51, "unit": "nM"},
      {"measurement": "accumulation by mitochondria", "setting": "[6]", "result": "rapidly and selectively accumulated by mitochondria"},
      {"measurement": "gross signs of toxicity", "setting": "[7]", "result": "without any gross signs of toxicity"},
      {"measurement": "inflammatory cells around the portal vein", "setting": "DDC intoxicated mice [8]; simultaneous MitoQ 6 mg/kg", "result": "Absence of inflammatory cells"},
      {"measurement": "morphology of the hepatocytes (size and morphology of nuclei, structure of cytoplasm)", "setting": "DDC intoxicated mice [8]; simultaneous MitoQ 6 mg/kg", "result": "normal"},
      {"measurement": "liver architecture (strands of hepatocytes bordered by sinusoids)", "setting": "DDC intoxicated mice [8]; simultaneous MitoQ in PBS/1% DMSO, 6 mg/kg", "result": "normal architecture again is visible"},
      {"measurement": "accumulation of protoporphyrin in bile ducts", "setting": "DDC intoxicated mice [9]", "result": "markedly reduced"}
    ]}
  ]
}
